This passage reports melting point and pest or weed control results from patent publication US9000002B2, “N1-substituted-5-fluoro-2-oxopyrimidinone-1(2H)-carboxamide derivatives” (Dow Agrosciences LLC, priority 2009, dated 2015).

Data set [1] has as its system Mycosphaerella graminicola; Anamorph: Septoria tritici; Bayer Code SEPTTR. Nature of the data set: Evaluation of fungicidal activity: leaf blotch of wheat (SEPTTR), wheat plants variety Yuma. The format is in vivo. The settings on record: Zymoseptoria tritici, 100 ppm, wheat plants, percent control vs untreated inoculated plants. As to the method:
Evaluation of Fungicidal Activity: Leaf Blotch of Wheat (Mycosphaerella graminicola; Anamorph: Septoria tritici; Bayer Code […]) Wheat plants (variety Yuma) were grown from seed in a greenhouse in 50% mineral soil/50% soil-less Metro mix until the first leaf was fully emerged, with 7-10 seedlings per pot. These plants were inoculated with an aqueous spore suspension of Septoria tritici either prior to or after fungicide treatments. After inoculation the plants were kept in 100% relative humidity (one day in a dark dew chamber followed by two to three days in a lighted dew chamber) to permit spores to germinate and infect the leaf. The plants were then transferred to a greenhouse for disease to develop. The following table presents the activity of typical compounds of the present disclosure when evaluated in these experiments. The effectiveness of the test compounds in controlling disease was determined by assessing the severity of disease on treated plants, then converting the severity to percent control based on the level of disease on untreated, inoculated plants. • In each case of Table II the rating scale is as follows: […]

Where [2] appears, read: 24 h, One-Day Protectant (1DP), read-out: SEPTTR 100 PPM 1DP (% Disease Control rating).
Setting [3] is: 72 h, Three-Day Curative (3DC), read-out: SEPTTR 100 PPM 3DC (% Disease Control rating).

Read-outs that look alike come from different tables or passages of the source.

By melting point is commonly meant the temperature of the solid-liquid transition.

For the compound `CCN(C(=S)n1cc(F)c(N)nc1=O)c1ccccc1` [Compound 37], the melting point is 223 to 226 °C. The pest or weed control at 100 ppm in data set [1] (setting [2]) lay in the range of 76 to 100%. Besides, the pest or weed control at 100 ppm in data set [1] (setting [3]) was 76 to 100%.
For `CCNC(=O)n1cc(F)c(NC(C)=O)nc1=O` [Compound 38, 4-acetamido-N-ethyl-5-fluoro-2-oxopyrimidine-1(2H)-carboxamide], the melting point lay in the range of 233 to 235 °C. The pest or weed control at 100 ppm in data set [1] (setting [2]) was 76 to 100%. For the same compound, the pest or weed control at 100 ppm in data set [1] (setting [3]) lay within 76 to 100%.
Compound `CCCNC(=O)n1cc(F)c(NC(C)=O)nc1=O` [Compound 39] returned a melting point of 233 to 235 °C. For the same compound, the pest or weed control at 100 ppm in data set [1] (setting [2]) was 76 to 100%. The pest or weed control at 100 ppm in data set [1] (setting [3]) fell in the range of 76 to 100%.
Compound `CCCNC(=O)n1cc(F)c(NC(=O)c2ccccc2)nc1=O` [Compound 40] displayed a melting point of 258 to 260 °C. In data set [1] (setting [2]), the pest or weed control at 100 ppm fell in the range of 76 to 100%. The pest or weed control at 100 ppm in data set [1] (setting [3]) was in the range of 76 to 100%.
Compound `CCCNC(=O)n1cc(F)c(NC(=O)C(C)C)nc1=O` [Compound 41] gave a melting point of 226 to 228 °C. Also, the pest or weed control at 100 ppm in data set [1] (setting [2]) was 76 to 100%. Moreover, the pest or weed control at 100 ppm in data set [1] (setting [3]) was in the range of 76 to 100%.
With `CCCNC(=O)n1cc(F)c(NC(=O)c2ccccc2Cl)nc1=O` [Compound 42], the melting point was 239 to 241 °C. Besides, in data set [1] (setting [2]), the pest or weed control at 100 ppm fell in the range of 26 to 50%. Besides, in data set [1] (setting [3]), the pest or weed control at 100 ppm fell in the range of 76 to 100%.
The like results for `CCCNC(=O)n1cc(F)c(NC(=O)Cc2ccc(OC)cc2)nc1=O` [Compound 43] were, in that order, 227 to 229 °C, 76 to 100% and 76 to 100%.
On to `CCNC(=O)n1cc(F)c(NC(=O)c2ccccc2)nc1=O` [Compound 44], for which the melting point is 249 to 251 °C. For the same compound, the pest or weed control at 100 ppm in data set [1] (setting [2]) lay in the range of 76 to 100%. Further, the pest or weed control at 100 ppm in data set [1] (setting [3]) fell in the range of 76 to 100%.
Compound `CCNC(=O)n1cc(F)c(NC(=O)C(C)C)nc1=O` [Compound 45] showed a melting point of 226 to 228 °C. The pest or weed control at 100 ppm in data set [1] (setting [2]) lay within 76 to 100%. In addition, the pest or weed control at 100 ppm in data set [1] (setting [3]) fell in the range of 76 to 100%.
Turning to `CCNC(=O)n1cc(F)c(NC(=O)c2ccccc2Cl)nc1=O` [Compound 46], the melting point fell in the range of 239 to 241 °C. The pest or weed control at 100 ppm in data set [1] (setting [2]) lay within 76 to 100%. In addition, the pest or weed control at 100 ppm in data set [1] (setting [3]) was 51 to 75%.
The like results for `CC(=O)Nc1nc(=O)n(C(=O)NCc2ccc(Cl)cc2)cc1F` [Compound 47] were, in that order, 170 to 172 °C, 76 to 100% and 76 to 100%.
On the same counts, the results for `O=C(Nc1nc(=O)n(C(=O)NCc2ccc(Cl)cc2)cc1F)c1ccccc1` [Compound 48] are 210 to 212 °C, 76 to 100% and 76 to 100%.
The like results for `CCNC(=O)n1cc(F)c(NC(=O)NCc2ccccc2OC)nc1=O` [Compound 49, N-ethyl-5-fluoro-4-(3-(2-methoxybenzyl)ureido)-2-oxopyrimidine-1(2H)-carboxamide] were, in that order, 248 to 250 °C, 0 to 25% and 0 to 25%.
As to `COc1ccccc1CNC(=O)Nc1nc(=O)n(C(=O)NC(C)C)cc1F` [Compound 50], the melting point fell in the range of 251 to 253 °C. Moreover, the pest or weed control at 100 ppm in data set [1] (setting [2]) lay within 0 to 25%. Besides, the pest or weed control at 100 ppm in data set [1] (setting [3]) lay within 0 to 25%.
The compound `CCCNC(=O)n1cc(F)c(NC(=O)NCc2ccccc2OC)nc1=O` [Compound 51] yielded a melting point of 248 to 250 °C. Also, the pest or weed control at 100 ppm in data set [1] (setting [2]) was 0 to 25%. The pest or weed control at 100 ppm in data set [1] (setting [3]) lay within 0 to 25%.
Consider `CCCCCNC(=O)n1cc(F)c(NC(=O)NCc2ccccc2OC)nc1=O` [Compound 52], for which the melting point lay in the range of 248 to 250 °C. Also, the pest or weed control at 100 ppm in data set [1] (setting [2]) was in the range of 0 to 25%. For the same compound, the pest or weed control at 100 ppm in data set [1] (setting [3]) lay in the range of 0 to 25%.
`COc1ccccc1CNC(=O)Nc1nc(=O)n(C(=O)NCc2ccccc2F)cc1F` [Compound 53] came in with a melting point of 229 to 231 °C. Further, the pest or weed control at 100 ppm in data set [1] (setting [2]) fell in the range of 0 to 25%. Moreover, the pest or weed control at 100 ppm in data set [1] (setting [3]) is 0 to 25%.
